The data set is described as follows: method code G-GLC, from Herzke, D.; Rotard, W. (1999). Physical-chemical properties of polyfluorinated dibenzodioxins and dibenzofurans. Organohalogen Compounds, 41, 171-174.

Regarding `Fc1cc2c(cc1F)Oc1cc(F)c(F)cc1O2`, the lipophilicity (logP) – broadly, a log measure of how a compound divides between an organic and an aqueous phase – worked out at 3.5.

`Clc1c(Cl)c(Cl)c2c(c1Cl)Oc1c(Cl)c(Cl)c(Cl)c(Cl)c1O2` yielded a log partition coefficient (logP) of 8.2.

Take `Clc1ccc2oc3ccccc3c2c1Cl`: the logP amounted to 5.6.

On to `Fc1c(F)c(F)c2c(c1F)Oc1c(F)c(F)c(F)c(F)c1O2`, for which the log partition coefficient (logP) is 3.

For `Clc1ccc2c(c1)Oc1ccc(Cl)cc1O2`, the logP is 5.7.

`Fc1cc(F)c2c(c1F)Oc1c(F)c(F)cc(F)c1O2` displayed a logP of 3.1.

`Fc1cc2c(c(F)c1F)Oc1c(F)cc(F)c(F)c1O2` displayed a logP of 3.1.

In turn, `Fc1cc2c(oc3ccccc32)c(F)c1F` returned a logP of 3.4.

In the case of `Fc1cc2c(cc1F)Oc1c(F)c(F)c(F)c(F)c1O2`, the logP came out at 3.8.

`Fc1ccc2oc3c(F)c(F)c(F)c(F)c3c2c1F` had a lipophilicity (logP) of 4.4.

In turn, `Fc1ccc2c(c1)Oc1ccc(F)cc1O2` registered a lipophilicity (logP) of 3.3.

Turning to `Fc1cc2oc3c(F)c(F)c(F)c(F)c3c2cc1F`, the log partition coefficient (logP) is 4.

In the case of `Fc1ccc2c(c1)Oc1c(F)c(F)c(F)c(F)c1O2`, the logP stood at 3.6.

`Clc1cc2c(oc3ccccc32)c(Cl)c1Cl` displayed a logP of 6.4.
